# Paper PMC4526366 (PLoS ONE, 2015)
# “Also recorded” adds a separate entry of the source. Where two headings read alike, the source gives them in different places. Where a SMILES comes first, the peptide text is derived from it. Where no end group is shown, it is not given here.
# Legend:
# thrombin [1] = target: T1, thrombin (Homo sapiens, UniProt P00734); conditions: 2 h, 37°C, TBS pH 7.4, MALDI MS; for cleavage by thrombin (peptide remaining / digestion): 25 μM peptide, 1 μM thrombin (25:1)
# Experimental: Reactions were stopped by freezing at –20°C until analysis. Samples (2 μl) were desalted in C-8 micro-columns (Ziptip-Milipore), washing 3 times with 0.1% TFA and eluting with 60% acetonitrile in water. Washes were diluted with 4 μl 50% acetonitrile and spotted (0.5–1 μl) on MALDI plates followed by addition of matrix solution. After drying, they were injected into the MS instrument and analyzed in reflectron (peptide plus thrombin) or linear (peptide alone) mode.
# α-thrombin [2] = target: T2, α-thrombin (Homo sapiens, UniProt P00734); test: Inhibition of thrombin-mediated hydrolysis of S2238; assay type: biochemical
# T2 construct: purchased Sigma; Haematologic Technologies; or prepared in house from prothrombin (Enzyme Research Laboratories) with Oxyuranus scutellatus venom
# Experimental: […] Reactions were started by addition of thrombin (0.5 nM) and absorbance was monitored for 10 minutes at 405 nm in a microplate reader. The data were fit to competitive or non-competitive models of inhibition using GraphPad Prism 5. In both cases, nonlinear regression was used to fit to the hyperbolic equation: v=Vmaxapp [S]/(Kmapp+[S]) In the case of competitive inhibition Vmaxapp = Vmax and in the case of noncompetitive inhibition Kmapp = Km.
# In the case of competitive inhibition the inhibition constant (Ki) was obtained from fitting of: Kmapp = Km(1+[I]/Ki) .
# For noncompetitive inhibition Ki was determined by fitting of: Vmaxapp = Vmax/(1+[I]/Ki)
# The experiments were repeated three times.
# thrombin (α-thrombin) [3] = test: thrombin at 1 μM in 1X TBS (10 X dilution of 10 X TBS pH 7.4); conditions: 37°C, up to 2 hours
# thrombin (α-thrombin) [4] = target: T3, thrombin (α-thrombin) (Homo sapiens, UniProt P00734); test: Screening for inhibition of serine proteases (fluorogenic substrate hydrolysis); assay type: biochemical; conditions: 1 μM peptide, pre-incubated 30°C 10 min, mean of three independent experiments in triplicate
# T3 construct: purchased Sigma; Haematologic Technologies; or prepared in house from prothrombin (Enzyme Research Laboratories) with Oxyuranus scutellatus venom
# Experimental: Linear fits of fluorescence increases as a function of time were verified with the Magellan—Data Analysis Software (Tecan group Ltd), and the slope in arbitrary fluorescence units per second (r^2 > 0.95) was used to calculate hydrolysis rate. Each experiment was performed in triplicate and the mean and standard error of three independent experiments were calculated. The substrate hydrolysis rate in the absence of the peptide was considered as 100% and compared with the remaining enzymatic activity in the presence of the peptide.
# α-thrombin [5] = target: T2, α-thrombin; test: Surface plasmon resonance, thrombin binding to immobilized peptide; conditions: 150 mM NaCl
# Experimental: Surface plasmon resonance (SPR) was used to measure interaction between immobilized peptides and thrombin using a Biacore T100 instrument. Approximately 500 resonance units of hyalomin-1 biotinylated at Lys1 or its N-terminal cleavage product (01–41) were bound to a neutravidin surface that had been immobilized on C5 chips using the amine coupling procedure. Kinetic measurements were carried out by injecting different concentrations of thrombin in 10 mM HEPES pH 7.4, 150 mM NaCl, 0.05%Tween-20. The chip surface was regenerated using injections of 10 mM glycine pH 2.5. Data were analyzed by global fitting of a 1:1 single state model using the Biacore T100 evaluation software. Binding of γ-thrombin with the same surface was also investigated under similar conditions.
# BALB/c mice = conditions: 2.5 mg/kg intravenous, tail transection after 15 min, hemoglobin by absorbance at 540
# Experimental: Briefly, BALB/c mice were anesthetized (xylazine and ketamine) and the common carotid artery was isolated for measuring blood flow continuously using a 0.5-V Doppler flow probe coupled to a TS420 flow meter (Thransonic Systems, Ithaca, NY) [21]. Before induction of thrombosis the tail vein was injected with 50 μl of hyalomin-1 (1 and 2.5 mg/kg) or vehicle (PBS). Thrombi were formed by placing a piece of filter paper (1 x 2 mm) saturated with 7.5% FeCl3 on the adventitial surface or the artery for 3 minutes. After washing with normal saline, blood flow was continuously monitored for 60 minutes or until the blood flow dropped to zero for at least 10 seconds. Tail bleeding was performed on anesthetized mice injected intravenously with peptide (2.5 mg/kg) or vehicle alone (PBS) in 100 μl. After 15 minutes, the distal 2 mm segment was removed and the tail was immersed in 40 ml distilled 37°C warmed water. Absorbance at 540 was measured to estimate hemoglobin content.
# thrombin [6] = target: T1, thrombin; test: biochemical
# Experimental: Inhibition of thrombin-mediated activation of FXI in the presence of long-chain (P700) polyphosphate (polyP) was done in according to Choi et al. [17] by adding 2 μM of polyP to buffer (20 mM Tris HCl, pH 7.4, 150 mM NaCl and 0.1% BSA) followed by different concentrations of peptide (23.4 nM to 600 nM). α-Thrombin (5 nM) and 60 nM of FXI were then added and samples were incubated at 37°C for 35 minutes. Reactions were stopped with 50 nM of the thrombin inhibitor anophelin [18, 19] and polybrene to dissociate complexes with polyP. S2236 (Chromogenix Inc.) was added to a concentration of 250 μM and product formed was read as absorbance at 405 nm for 5–10 minutes in a microplate reader. Results were expressed as the percentage of the maximum activity (mAU/min) in the absence of peptide. Experiments were performed in duplicate.
# thrombin [7] = conditions: cited from earlier work
# factor Xa = conditions: cited from earlier work
# [8] = 150 mM NaCl, 0.5 nM thrombin, 37°C, pH 7.4, three experiments, read-out: inhibition constant (Ki), competitive model
compound,measurement,setting,value
CC[C@H](C)[C@H](NC(=O)[C@H](CCCNC(=N)N)NC(=O)[C@H](CCC(=O)O)NC(=O)[C@H](CO)NC(=O)[C@H](CC(=O)O)NC(=O)[C@H](CCCNC(=N)N)NC(=O)CNC(=O)[C@H](CO)NC(=O)CNC(=O)[C@@H]1CCCN1C(=O)[C@@H](NC(=O)[C@@H]1CCCN1C(=O)[C@H](CC(C)C)NC(=O)[C@H](CCCNC(=N)N)NC(=O)[C@@H]1CCCN1C(=O)[C@H](CCCCN)NC(=O)[C@H](C)NC(=O)[C@@H]1CCCN1C(=O)[C@@H](N)CCC(=O)O)C(C)C)C(=O)N1CCC[C@H]1C(=O)N[C@H](C(=O)N1CCC[C@H]1C(=O)N[C@H](C(=O)N[C@@H](CC(=O)O)C(=O)O)C(C)C)C(C)C [36–59] (H-EPAKPRLPVPGSGRDSERIPVPVD-OH),cleavage in thrombin-free control,thrombin [1]; 25 μM peptide without thrombin,no cleavage
same,cleavage by thrombin (peptide remaining / digestion),thrombin [1],complete digestion
same,Ki,α-thrombin [2]; [8],100 ± 2 nM
same,Ki,"α-thrombin [2]; salt concentration 50 mM, read-out: Ki, competitive model",180 ± 30 nM
CC[C@H](C)[C@H](NC(=O)[C@H](CCCNC(=N)N)NC(=O)[C@H](CCC(=O)O)NC(=O)[C@H](CO)NC(=O)[C@H](CC(=O)O)NC(=O)[C@H](CCCNC(=N)N)NC(=O)CNC(=O)[C@H](CO)NC(=O)CNC(=O)[C@@H]1CCCN1C(=O)[C@@H](NC(=O)[C@@H]1CCCN1C(=O)[C@@H](N)CC(C)C)C(C)C)C(=O)N1CCC[C@H]1C(=O)N[C@H](C(=O)N1CCC[C@H]1C(=O)N[C@H](C(=O)N[C@@H](CC(=O)O)C(=O)O)C(C)C)C(C)C [42–59] (H-LPVPGSGRDSERIPVPVD-OH),Ki,"α-thrombin [2]; ionic strength 150 mM, read-out: Ki, non-competitive model",1700 ± 100 nM
same,Ki,"α-thrombin [2]; salt concentration 50 mM, read-out: Ki, non-competitive model",1800 ± 100 nM
DESDYDTYPDDNNDDSGERNGGSEPAKPRLPV [hyalomin (13–44) sulfated],cleaved bond,thrombin (α-thrombin) [3],Arg41-Leu42
DESDYDTYPDDNNDDSGERNGGSEPAKPRLPV [hyalomin-1 (13–44)],cleaved bond,thrombin (α-thrombin) [3],"Arg41-Leu42, 2 hr"
EPAKPRLPVPGSGRDSERIPVPVD,cleaved bond,thrombin (α-thrombin) [3],"Arg41-Leu42, two hours"
KPNLQSRSDDGVDESDYDTYPDDNNDDSGERNGGSEPAKPRLPVPGSGRDSERIPVPVD,cleaved bond,thrombin (α-thrombin) [3],"Arg41-Leu42, two hours"
KPNLQSRSDDGVDESDYDTYPDDNNDDSGERNGGSEPAKPRLPVPGSGRDSERIPVPVD [hyalomin-1],loss of thrombin control activity in the presence of the peptide,thrombin (α-thrombin) [4],72%
same,cleavage by thrombin (peptide remaining / digestion),thrombin [1],No full-length peptide
same,Kd,"α-thrombin [5]; SPR, immobilized biotinylated peptide, read-out: calculated dissociation equilibrium constant (KD)",19 nM
same,kon,"α-thrombin [5]; peptide biotinylated at N-terminal lysine on neutravidin surface, pH 7.4, 1:1 model, read-out: association rate constant (ka)",1e+06 M⁻¹ s⁻¹
same,koff,"α-thrombin [5]; peptide biotinylated at N-terminal lysine on neutravidin surface, pH 7.4, 1:1 model, read-out: dissociation rate constant (kd)",0.02 s⁻¹
same,Ki,"α-thrombin [2]; 50 mM salt, 0.5 nM thrombin, 37°C, read-out: inhibition constant (Ki), competitive model",0.4 ± 0.1 nM
same,Ki,α-thrombin [2]; [8],11.9 ± 1.8 nM
same,potency of the inhibitor over incubation time with thrombin,"α-thrombin [2]; 800:1 peptide to enzyme (400 nM peptide, 0.5 nM thrombin), 37°C, six hour incubation, 50 μM S2238",diminished in a time-dependent manner
same,tail bleeding,BALB/c mice,significant bleeding
same,IC50,thrombin [6],~25 nM
YPERDSAKDGNQEKERALLVKVQERYQGNQGDYDEYDQDETTPPPDPTAQTARPRLRQNQD,cleaved bond,thrombin [7],cleaved upstream of this site at Lys21
same,cleaved bond,factor Xa,cleaved by factor Xa at Arg16; also recorded: cleaved by factor Xa at Arg25
YPERDSAKEGNQEQERALHVKVQKRTDGDADYDEYEEDGTTPTPDPTAPTAKPRLRGNKP,cleaved bond,thrombin [7],Arg54-Leu55; also recorded: cleaved upstream of this site at Lys21
same,cleaved bond,factor Xa,cleaved by factor Xa at Arg25; also recorded: cleaved by factor Xa at Arg54; also recorded: cleaved by factor Xa at Arg16
